Source: US12115178B2, “Acylated active agents and methods of their use for the treatment of autoimmune disorders” (Flagship Pioneering Innovations V, Inc., priority 2018, dated 2024)

Tests used:
[1] = tested on: Primary Human Peripheral Blood Mononuclear Cells (PBMCs); experiment: Inflammatory signals in LPS-treated primary human PBMCs; assay type: cell-based; conditions: 100 uM, 24 hours
Protocol: Human donor blood (8 mL) was collected in sodium citrate CPT tubes and centrifuged at 1,600×g for 20 minutes at room temperature. Buffy coat containing PBMCs was collected and transferred to a 50 mL conical tube containing 30 mL of RPMI-1640 medium at room temperature (supplemented with penicillin-streptomycin). PBMCs samples were centrifuged at 400×g for 10 minutes at 10° C. The pelleted PBMCs were washed twice in 10 ml of RPMI-1640 medium (supplemented with penicillin-streptomycin), then resuspended in RPMI-1640 medium (supplemented with penicillin-streptomycin, fetal bovine serum, and L-Glutamine). PBMCs were filtered through a 70 micron mesh to remove any cellular debris. […] PBMCs in a 96-well plate were rested for 30 minutes in a 37° C., 5% CO2 incubator, then subsequently treated with 10 μl of indicated compound. After 2 hours 10 μL of LPS (O111:B4) 1 mg/mL was added to test wells. After 24 hours of incubation at 37° C., 5% CO2, 100 μL of cell supernatant was collected and transferred to a 96-well plate (non-tissue treated, flat bottom). The plate was centrifuged at 350×g for 5 minutes at room temperature, and then the clear supernatant transferred to a new 96-well plate (non-tissue treated, flat bottom). The remaining cells were tested for viability using CellTiter-Glo® Luminescent Cell Viability Assay (Promega). The supernatant was analyzed for TNFα, IL-6 and […] Systems), using Luminex Immunoassay Technology (MAGPIX System). Cytokine levels of LPS treated DMSO control samples were set to 100%, and compound treated samples were expressed relative to this (Table 3).

neutrophil = experiment: Neutrophil chemokine production assay; assay type: cell-based, human; conditions: 12 h
Protocol: A volume 25 mL of human blood was layered over 15 mL of Histopaque®-1077 and centrifuged at 500 g, RT, for 30 min with no break applied to the centrifuge. The PBMC band and Histopaque®-1077 layer were removed leaving behind the bottom red layer which was mixed with 40 mL of 1× red blood cell (RBC) lysis buffer (Sigma-Aldrich) was and split into two 50 mL tubes. The volume for both fractions was brought to 50 mL with RBC lysis buffer, mixed by inversion, and then incubated at RT for 10 min. Solutions were centrifuged at 250 g, for 10 min at RT and the supernatant liquids removed. The reddish pellets were re-suspended in 1 mL of RBC lysis buffer and combined. The cell suspension was incubated for 5 min at RT in RBC lysis buffer. After incubation 45 mL of Hanks Balanced Salt Solution with no calcium, magnesium or phenol red (HBSS−) was added, the cell suspension was spun (250 g for 10 min at RT), and supernatant liquids were removed. The white pellet was re-suspended in 1 mL of HBSS−, and cell counts were determined. The neutrophil cell suspension was brought to a concentration of 1.11e6 cells/mL in RPMI complete (Sigma-Aldrich), and 180 μL of cell suspension was transferred to all wells within a sterile 96-well tissue culture treated plate resulting in 2.0e5 cells/well. […] After incubation, 10 μL of 2 μg/mL LPS solution in RPMI complete was added to each well except for control wells, which received an additional 10 μL of media. Cells were incubated for 12 h (37° C., 5% CO2), after which plates were centrifuged at 250 g, RT, for 5 min and supernatant liquids were obtained and stored at −80° C. until analyzed via Luminex® Multiplex Assay for various chemokines and cytokines. Three data points were acquired from two different blood donors and averaged.

Caco-2 colonocytes = experiment: Human Caco-2 barrier integrity assay (TEER); assay type: cell-based; conditions: 48 hours
Protocol: At 70-80% confluency, cells were trypsinized and seeded in 0.4 cm^2 transwell collagen I coated membranes with supplemented DMEM in both apical and basolateral compartments. Cells were seeded at a density of 200,000 cells per well and maintained for 10 days to form a polarized barrier with a TransEpithelial […] After 48 hours, TEER readings were taken again and viability was measured by CellTiter 96® AQueous One Solution Cell Proliferation Assay (Promega). The percent change in TEER over the 48 hours was determined and normalized to the 0.1% DMSO control (Table 6).

In the case of CC(=O)O [acetate], the “IL1β % DMSO control” value [1] is reported as “= ((=) 90%> <110% DMSO)”, the “IL6 % DMSO control” value [1] is reported as “= ((=) 90%> <110% DMSO)” and the “TNFα % of DMSO control” value [1] is reported as “= ((=) 90%> <110% DMSO)”. The “% IL-8 (Vehicle + LPS = 100%)” value (neutrophil; 500.0 μM) was “− (− = >90% Vehicle)”, the “% MIP-1α (Vehicle + LPS = 100%)” value (neutrophil; 500.0 μM) was “+ (+ = <90% Vehicle)” and the “% MIP-1β (DMSO + LPS = 100%)” value (neutrophil; 500.0 μM) was “+ (+ = <90% Vehicle)”. For the same compound, the “% IL-8 (Vehicle + LPS = 100%)” value (neutrophil; 1000.0 μM) was “− (− = >90% Vehicle)”, the “% MIP-1α (Vehicle + LPS = 100%)” value (neutrophil; 1000.0 μM) was “++ (++ = <70%Vehicle)” and the “% MIP-1β (DMSO + LPS = 100%)” value (neutrophil; 1000.0 μM) was “+ (+ = <90% Vehicle)”. The “% IL-8 (Vehicle + LPS = 100%)” value (neutrophil; 3000.0 μM) was “+++ (+++ = <50% Vehicle)”, the “% MIP-1α (Vehicle + LPS = 100%)” value (neutrophil; 3000.0 μM) was “+++ (+++ = <50% Vehicle)” and the “% MIP-1β (DMSO + LPS = 100%)” value (neutrophil; 3000.0 μM) was “+++ (+++ = <50% Vehicle)”. The “% Change in TEER from DMSO” value (Caco-2 colonocytes; 1 mM + cytokines) was “− (<125%: −)” and the “% Change in TEER from DMSO” value (Caco-2 colonocytes; 3 mM + cytokines) was “− (<125%: −)”.

With CC(O)CC(=O)O (stereo not drawn) [beta-hydroxybutyric acid, β-hydroxybutyric acid] the “IL1β % DMSO control” value [1] was “− ((−) >110% DMSO)”, the “IL6 % DMSO control” value [1] was “= ((=) 90%> <110% DMSO)” and the “TNFα % of DMSO control” value [1] was “− ((−) >110% DMSO)”. The “% IL-8 (Vehicle + LPS = 100%)” value (neutrophil; 200.0 μM) was “− (− = >90% Vehicle)”, the “% MIP-1α (Vehicle + LPS = 100%)” value (neutrophil; 200.0 μM) was “− (− = >90% Vehicle)” and the “% MIP-1β (DMSO + LPS = 100%)” value (neutrophil; 200.0 μM) was “+ (+ = <90% Vehicle)”. The “% IL-8 (Vehicle + LPS = 100%)” value (neutrophil; 2000.0 μM) was “+ (+ = <90% Vehicle)”, the “% MIP-1α (Vehicle + LPS = 100%)” value (neutrophil; 2000.0 μM) was “++ (++ = <70%Vehicle)” and the “% MIP-1β (DMSO + LPS = 100%)” value (neutrophil; 2000.0 μM) was “+ (+ = <90% Vehicle)”. The “% Change in TEER from DMSO” value (Caco-2 colonocytes; 200 μM + cytokines) was “+ (125%> <150%: +)” and the “% Change in TEER from DMSO” value (Caco-2 colonocytes; 2 mM + cytokines) was “− (<125%: −)”.
